Data from the NIST ThermoML archive (doi:10.1016/j.jct.2018.02.022).
± gives the expanded uncertainty stated by the source.

Assay: xn = mol fraction of the nth substance listed
Details: 92.3 kPa, Liquid; for viscosity: Concentric cylinders viscometry; for speed of sound: Frequency=3 MHz, Single path-length method; for mass density: Vibrating tube method

OCC(O)CO [glycerol] + O
Details	mass density, 303.15 K [kg/m3]	mass density, 308.15 K [kg/m3]	speed of sound, 303.15 K [m/s]	speed of sound, 308.15 K [m/s]	viscosity, 303.15 K [mPa·s]	viscosity, 308.15 K [mPa·s]
x1 = 0.011	1008.02 ± 3.2	1006.3 ± 3.2	1529.5 ± 1.8	1538.8 ± 1.8	–	–
x1 = 0.021	1018.65 ± 3.2	1016.83 ± 3.2	1548 ± 1.8	1556.4 ± 1.8	–	–
x1 = 0.0302	1027.91 ± 3.2	1026.01 ± 3.2	1564.3 ± 1.8	1571.8 ± 1.8	–	–
x1 = 0.0398	1037.12 ± 3.2	1035.13 ± 3.2	1580.8 ± 1.8	1587.3 ± 1.8	–	–
x1 = 0.0546	1050.34 ± 3.3	1048.23 ± 3.3	1604.4 ± 1.8	1609.6 ± 1.8	–	–
x1 = 0.0651	1058.89 ± 3.3	1056.7 ± 3.3	1620.4 ± 1.8	1624.6 ± 1.8	–	–
x1 = 0.0721	1064.55 ± 3.3	1062.31 ± 3.3	1630.6 ± 1.8	1634.3 ± 1.8	–	–
x1 = 0.0793	1069.8 ± 3.3	1067.51 ± 3.3	1640.5 ± 1.8	1643.6 ± 1.8	–	–
x1 = 0.0898	1077.46 ± 3.3	1075.13 ± 3.3	1654.6 ± 1.8	1656.9 ± 1.8	–	–
x1 = 0.0998	1084.34 ± 3.3	1081.93 ± 3.3	1667.4 ± 1.8	1668.9 ± 1.8	2.405 ± 0.34	2.102 ± 0.29
x1 = 0.1198	1096.94 ± 3.3	1094.42 ± 3.3	1690.6 ± 1.8	1690.8 ± 1.8	–	–
x1 = 0.1549	1116.57 ± 3.3	1113.89 ± 3.3	1726.2 ± 1.8	1724.3 ± 1.8	3.932 ± 0.55	3.385 ± 0.47
x1 = 0.2024	1138.25 ± 3.3	1135.43 ± 3.3	1764 ± 1.8	1760.1 ± 1.8	–	–
x1 = 0.2534	1157.11 ± 3.3	1154.17 ± 3.3	1794.9 ± 1.8	1789.3 ± 1.8	8.807 ± 1.2	7.44 ± 1
x1 = 0.2959	1170.15 ± 3.3	1167.15 ± 3.3	1814.7 ± 1.8	1808.1 ± 1.8	12.34 ± 1.7	10.25 ± 1.4
x1 = 0.3504	1184.07 ± 3.3	1181.02 ± 3.3	1834.3 ± 1.8	1826.7 ± 1.8	18.45 ± 2.6	14.92 ± 2.1
x1 = 0.4006	1194.81 ± 3.3	1191.72 ± 3.3	1848 ± 1.8	1839.7 ± 1.8	26.45 ± 3.7	20.87 ± 2.9
x1 = 0.4477	1203.34 ± 3.3	1200.23 ± 3.3	1857.9 ± 1.8	1849 ± 1.8	36.01 ± 5	27.91 ± 3.9
x1 = 0.4983	1211.29 ± 3.3	1208.14 ± 3.3	1866.4 ± 1.8	1857.6 ± 1.8	49.18 ± 6.9	37.43 ± 5.2
x1 = 0.5471	1218.12 ± 3.3	1214.97 ± 3.3	1872.9 ± 1.8	1863.4 ± 1.8	65.39 ± 9.2	49.12 ± 6.9
x1 = 0.6046	1224.8 ± 3.3	1221.64 ± 3.3	1878.8 ± 1.8	1869 ± 1.8	91.76 ± 13	65.97 ± 9.2
x1 = 0.6469	1229.27 ± 3.3	1226.11 ± 3.3	1882.3 ± 1.8	1872.2 ± 1.8	116.57 ± 16	85.3 ± 12
x1 = 0.7006	1234.31 ± 3.4	1231.15 ± 3.3	1886 ± 1.8	1875.7 ± 1.8	154.03 ± 22	111.01 ± 16
x1 = 0.7465	1238.26 ± 3.4	1235.11 ± 3.4	1888.8 ± 1.8	1878.4 ± 1.8	196.75 ± 28	140.28 ± 20
x1 = 0.7942	1241.97 ± 3.4	1238.83 ± 3.4	1891.5 ± 1.8	1880.9 ± 1.8	245.24 ± 35	172.49 ± 24
x1 = 0.8497	1245.72 ± 3.4	1242.6 ± 3.4	1894.1 ± 1.8	1883.6 ± 1.8	314.35 ± 45	218.85 ± 31
x1 = 0.8993	1248.75 ± 3.4	1245.64 ± 3.4	1895.6 ± 1.8	1884.6 ± 1.8	391.29 ± 56	270.27 ± 38
x1 = 0.9196	1250 ± 3.4	1246.89 ± 3.4	1896.7 ± 1.8	1885.5 ± 1.8	–	–
x1 = 0.9322	1250.72 ± 3.4	1247.62 ± 3.4	1896.9 ± 1.8	1885.8 ± 1.8	–	–
x1 = 0.9462	1251.51 ± 3.4	1248.4 ± 3.4	1897.2 ± 1.9	1886.3 ± 1.9	477.66 ± 68	326.69 ± 46
x1 = 0.9562	1252.03 ± 3.4	1248.93 ± 3.4	1897.8 ± 1.9	1886.6 ± 1.9	–	–
x1 = 0.9855	1253.69 ± 3.4	1250.59 ± 3.4	1898.9 ± 1.9	1887.5 ± 1.9	–	–
x1 = 1	1254.48 ± 3	1251.38 ± 3	1899.6 ± 1.9	1888.1 ± 1.9	593.09 ± 85	401.76 ± 57
